Legend:
Type in all cases: functional
Homo sapiens [1] = experiment: Reduction of cardiovascular events in patient with coronary artery disease and left ventricular systolic dysfunction assessed as relative risk reduction at 7.5 mg, po bid; parameters: scale not given: the % may be the effect or the level left
Homo sapiens [2] = experiment: Reduction of cardiovascular events in patient with acute MI and coronary revascularization assessed as reduction in death at 7.5 mg, po bid; parameters: scale not given: the % may be the effect or the level left
Homo sapiens [3] = experiment: Reduction of cardiovascular events in patient with acute MI and coronary revascularization assessed as reduction in heart rate at 7.5 mg, po bid
Homo sapiens [4] = experiment: Reduction of cardiovascular events in patient with severe chronic heart failure and left ventricular systolic dysfunction assessed as relative risk reduction at 7.5 mg, po bid for 14 days; parameters: scale not given: the % may be the effect or the level left
Homo sapiens [5] = experiment: Reduction of cardiovascular events in patient with severe chronic heart failure assessed as reduction in death at 7.5 mg, po bid for 14 days; parameters: scale not given: the % may be the effect or the level left
Homo sapiens [6] = experiment: Reduction of cardiovascular events in patient with severe chronic heart failure assessed as reduction in heart rate at 7.5 mg, po bid for 14 days

In the case of `COc1cc2c(cc1OC)CC(=O)N(CCCN(C)C[C@H]1Cc3cc(OC)c(OC)cc31)CC2` [IVABRADINE], the Activity (Homo sapiens [1]) is reported as “<=24%”, the Activity (Homo sapiens [2]) is reported as 31% and the Activity (Homo sapiens [3]) is reported as 12 bpm. The Activity (Homo sapiens [4]) was 18%, the Activity (Homo sapiens [5]) was 26% and the Activity (Homo sapiens [6]) was 15 bpm.
